Source: ChEMBL document CHEMBL1201862, “PubChem BioAssay data set” (2004)
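Dose response: 5 concentrations. Exposure: 48 h. Format: 96-well plates. Endpoint: linear interpolation; highest concentration if not reached. The concentration for 50% growth inhibition is given as GI50.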 Activity calls are given as the source filed them. Cut-off read from the data, not from the text of the source: active = GI50 up to about 1.1 µM and inactive = higher.

Key:
Test in all cases: DTP human tumour cell line panel, 48 h
U-251 = tested on: U-251
SK-OV-3 = tested on: SK-OV-3
UACC-257 = tested on: UACC-257
SK-MEL-2 = tested on: SK-MEL-2
SF-268 = tested on: SF-268
OVCAR-8 = tested on: OVCAR-8
OVCAR-5 = tested on: OVCAR-5
UO-31 = tested on: UO-31
SF-295 = tested on: SF-295
SK-MEL-5 = tested on: SK-MEL-5
EKVX = tested on: EKVX
HCT-116 = tested on: HCT-116
SN12C = tested on: SN12C
SF-539 = tested on: SF-539
HCC 2998 = tested on: HCC 2998
SNB-75 = tested on: SNB-75
KM12 = tested on: KM12
HT-29 = tested on: HT-29
UACC-62 = tested on: UACC-62
Malme-3M = tested on: Malme-3M

Measured: GI50

c1ccc(OCc2nnc(CCCCCCCCc3nnc(COc4ccccc4)o3)o2)cc1
inactive: U-251 32.2 µM | SK-OV-3 32.8 µM | UACC-257 > 100 µM | SK-MEL-2 > 100 µM | SF-268 99.5 µM | OVCAR-8 28.9 µM | OVCAR-5 > 100 µM | UO-31 > 100 µM | SF-295 > 100 µM | SK-MEL-5 > 100 µM | EKVX > 100 µM | HCT-116 63.8 µM | SN12C > 100 µM | SF-539 32.2 µM | HCC 2998 28.6 µM | SNB-75 28.1 µM | KM12 > 100 µM | HT-29 > 100 µM

CN1C(=O)CC(=O)N1/C(=C/c1ccccc1)c1ccccc1
inactive: U-251 > 100 µM | SK-OV-3 > 100 µM | UACC-62 76.9 µM | UACC-257 > 100 µM | SK-MEL-2 38.5 µM | SF-268 > 100 µM | OVCAR-8 > 100 µM | OVCAR-5 > 100 µM | UO-31 18.1 µM | SF-295 67 µM | SK-MEL-5 72.8 µM | EKVX > 100 µM | HCT-116 > 100 µM | SN12C > 100 µM | HCC 2998 > 100 µM | SNB-75 > 100 µM | KM12 > 100 µM | HT-29 > 100 µM

N/N=C(\C(=O)Nc1c(Cl)cc([N+](=O)[O-])cc1Cl)C(c1cnc2ccc([N+](=O)[O-])cc2n1)[N+](=O)[O-] (stereo not given)
inactive: U-251 > 100 µM | SK-OV-3 > 100 µM | UACC-62 36.9 µM | UACC-257 > 100 µM | SK-MEL-2 > 100 µM | SF-268 > 100 µM | OVCAR-8 > 100 µM | OVCAR-5 > 100 µM | UO-31 87.7 µM | SF-295 > 100 µM | SK-MEL-5 > 100 µM | EKVX 37.8 µM | HCT-116 > 100 µM | SN12C 95.7 µM | SF-539 > 100 µM | HCC 2998 82.2 µM | SNB-75 56.9 µM | KM12 50.1 µM | HT-29 > 100 µM

CN(C)C(=O)C(F)(F)C(c1ccc(Br)cc1)C1C(=O)N(C)C(=O)N(C)C1=O (stereo not given)
inactive: U-251 > 100 µM | SK-OV-3 > 100 µM | UACC-62 > 100 µM | UACC-257 > 100 µM | SK-MEL-2 > 100 µM | SF-268 > 100 µM | OVCAR-5 > 100 µM | UO-31 > 100 µM | SF-295 > 100 µM | SK-MEL-5 > 100 µM | EKVX > 100 µM | HCT-116 > 100 µM | HCC 2998 > 100 µM | SNB-75 > 100 µM | KM12 > 100 µM

CCOC(=O)C1=NN(c2ccc(Cl)cc2)C2=CC(C)=NN(C)C(=S)N21
inactive: U-251 25.9 µM | SK-OV-3 29.9 µM | UACC-62 40.6 µM | UACC-257 > 100 µM | SK-MEL-2 > 10 µM | SF-268 45.2 µM | OVCAR-8 41.3 µM | OVCAR-5 > 100 µM | UO-31 > 100 µM | SF-295 42.2 µM | SK-MEL-5 > 100 µM | EKVX 29.9 µM | HCT-116 36.6 µM | SN12C 51.5 µM | SF-539 22.6 µM | HCC 2998 > 100 µM | SNB-75 26.8 µM | KM12 > 100 µM | HT-29 > 100 µM

CC(=C(c1ccccc1)c1ccccc1)N1C(=O)CC(=O)N1C
inactive: U-251 61.4 µM | SK-OV-3 > 100 µM | UACC-62 26 µM | UACC-257 > 100 µM | SK-MEL-2 16.7 µM | SF-268 25.5 µM | OVCAR-8 99.1 µM | OVCAR-5 53.2 µM | UO-31 17.1 µM | SF-295 52.7 µM | SK-MEL-5 95.7 µM | EKVX 53.3 µM | HCT-116 74.6 µM | SN12C > 100 µM | SF-539 26.3 µM | HCC 2998 47 µM | SNB-75 67.6 µM | KM12 50.4 µM | HT-29 > 100 µM

Cc1ccnc2nc(N)ccc12
inactive: U-251 > 100 µM | SK-OV-3 > 100 µM | UACC-62 > 100 µM | UACC-257 > 100 µM | SK-MEL-2 > 100 µM | Malme-3M > 100 µM | SF-268 > 100 µM | OVCAR-8 > 100 µM | OVCAR-5 > 100 µM | UO-31 > 100 µM | SF-295 > 100 µM | SK-MEL-5 > 100 µM | EKVX > 100 µM | HCT-116 > 100 µM | SN12C > 100 µM | SF-539 > 100 µM | SNB-75 66.7 µM | KM12 > 100 µM | HT-29 > 100 µM

COc1ccc(/C(Cl)=C(\C=O)c2ccc(F)cc2)cc1
inactive: U-251 6.58 µM | SK-OV-3 40 µM | UACC-62 9.08 µM | SK-MEL-2 8.83 µM | Malme-3M 13.7 µM | SF-268 8.36 µM | OVCAR-8 10.8 µM | UO-31 8.15 µM | SF-295 8.43 µM | SK-MEL-5 9.06 µM | EKVX 16.9 µM | HCT-116 5.08 µM | SN12C 9.98 µM | SF-539 15.5 µM | SNB-75 2.27 µM | HT-29 7.41 µM

C[Si](C)(C)/C(I)=C/CO
inactive: U-251 18.3 µM | SK-OV-3 32.5 µM | UACC-62 20.4 µM | UACC-257 15.5 µM | SK-MEL-2 19.7 µM | Malme-3M 27.1 µM | SF-268 27.1 µM | OVCAR-8 29.7 µM | OVCAR-5 30.5 µM | UO-31 34.4 µM | SF-295 24.9 µM | SK-MEL-5 19 µM | EKVX 29.9 µM | HCT-116 14.3 µM | SN12C 22 µM | SF-539 20 µM | SNB-75 53.6 µM | KM12 23 µM | HT-29 20.5 µM

N=C(N)SCCC(=O)CCSC(=N)N
inactive: U-251 > 100 µM | SK-OV-3 > 100 µM | UACC-257 36 µM | SF-268 > 100 µM | OVCAR-8 > 100 µM | UO-31 > 100 µM | SF-295 > 100 µM | SK-MEL-5 > 100 µM | HCT-116 > 100 µM | SN12C > 100 µM | HCC 2998 > 100 µM | SNB-75 > 100 µM | KM12 70.3 µM | HT-29 > 100 µM

O=C(O)c1ccc(C(=O)O)c2c(C(=O)O)ccc(C(=O)O)c12
inactive: U-251 > 100 µM | SK-OV-3 > 100 µM | UACC-62 > 100 µM | UACC-257 > 100 µM | SK-MEL-2 > 100 µM | Malme-3M > 100 µM | SF-268 > 100 µM | OVCAR-8 > 100 µM | OVCAR-5 > 100 µM | UO-31 > 100 µM | SF-295 > 100 µM | SK-MEL-5 > 100 µM | EKVX > 100 µM | HCT-116 > 100 µM | SN12C > 100 µM | SF-539 > 100 µM | SNB-75 > 100 µM | KM12 > 100 µM | HT-29 > 100 µM
